Test results as given in a melting point compilation (Tetko et al.; mined from patent text by program, amines drawn as free bases though some values may be those of a salt).

Row | Compound | melting point [°C]
1 | Cc1cccc(N2CCN(c3nnc(Cl)c(C)c3C)CC2)c1C | 194
2 | O=C(Cc1cc(Cl)cc(Cl)c1)NC1N=C(C2CC2)c2ccccc2N(CC(F)(F)F)C1=O (single isomer, unassigned; (+)) | 152 to 153
3 | OCc1cccc(C=CC2N=Cc3cc(Cl)ccc3S2)c1 (centres undefined) | 143 to 145
4 | CCCCc1nc(CO)c(C(=O)N2CCC[C@H]2C(=O)OC)n1Cc1ccc(-c2ccccc2C(=O)O)cc1 | > 120
5 | OCc1ccc(Br)c(CO)c1 | 106 to 108
6 | CCCCCC(CC(=O)Nc1cc(C(=O)O)ccc1C(C)(C)C)c1ccc(C(=O)CC)cc1OC (centres undefined) | 197 to 199
7 | CCOC(=O)c1cnc2onc(C)c2c1N(CS(=O)(=O)c1ccc(OC)cc1)c1cccnc1 | 128 to 130
8 | COc1ncccc1NC(=O)[C@H]1[C@H](c2ccc(S(N)(=O)=O)cc2)C1(C)C (relative stereo) | 216 to 218
9 | Cc1cc(-c2sc(N3CCN(Cc4ccc(C(F)(F)F)cc4)C3=O)nc2C)on1 | 201 to 203
10 | CCCCCCCCCCCCCCCCCCOc1cc(OCc2ccc3ccccc3n2)cc(N(CC(=O)OC)CC(=O)OC)c1 | 76 to 79
11 | N#Cc1ncc(Cl)cc1OC1SCC(O)C(O)C1O (centres undefined) | 122
12 | CCOC(=O)C=Cc1ccc(O)cc1 | 70 to 71
13 | COc1cc(/C=C/C(=O)O)ccc1OCc1sc(-c2ccc(C(F)(F)F)cc2)nc1C | 235 to 237
14 | CC(=O)Nc1cc(Oc2ccc3c(C(=O)Nc4ccc(CN5CCNCC5)c(C(F)(F)F)c4)cccc3c2)ncn1 | 194 to 197
15 | CC(=O)N1CCC2(CC1)CN=C(c1cc3sc(C)c(N(C)S(=O)(=O)c4cccs4)c3[nH]1)S2 | 231
16 | O=C(NCCO)c1ccc(-c2ccccn2)cc1 | 86 to 88
17 | COc1cc2nc(Cl)nc(Cl)c2c(OC)c1OC | 213 to 215
18 | O=C1NC(=O)c2c1c(-c1ccccc1Cl)cc1c2c2cc(O)ccc2n1CCS(=O)c1ncn[nH]1 (centres undefined) | 237 to 242
19 | N#Cc1ccc2c(c1)Sc1ccccc1O2 | 215
20 | CCNC(C)Cc1ccc(O)cn1 (centres undefined) | 75 to 79
21 | CC(C)C[C@H](NC(=O)Nc1cccc2ccccc12)C(=O)NC1CCOC1O (some centres undefined) | 177 to 178
22 | Cc1c(NC(=O)c2ccc(-c3ccc(Cl)s3)cc2)ccc2cc(CN3CCCC3)cnc12 | 210 to 211
23 | CN1CCN(c2cc(NC(=O)OC(C)(C)C)c([N+](=O)[O-])cc2C#Cc2ccccc2)CC1 | 170
24 | CCc1cn(C2CC(O)C(CNC(=O)c3ccccc3)O2)c(=O)[nH]c1=O (centres undefined) | 246 to 247
25 | Cc1nccn1-c1nc(-c2ccc(Cl)cc2)c(CCO)o1 | 159 to 160

Row | Compound | melting point [°C]
26 | Cc1nccn1-c1cccc(OS(N)(=O)=O)c1 | 197 to 200
27 | CCOC(=O)c1c(C(C)C)csc1N/C=C(\C#N)C(=O)OC(C)(C)C | 93 to 94
28 | COC(=O)[C@H]1Cc2ccc(C)cc2C(=O)[C@H](C)S1 (relative stereo) | 99 to 100
29 | Nc1nc(-c2cc(Cl)ccc2Cl)nc(N2CCC(CO)CC2)n1 | 173 to 175
30 | CCOC(=O)C1=C(CCN2C(=O)c3ccccc3C2=O)NC(CCN2C(=O)c3ccccc3C2=O)=C(C(=O)OCC)C1c1ccccc1Cl | 170
31 | COC(=O)Cc1coc(-c2cc(C(C)(C)C)c(O)c(C(C)(C)C)c2)n1 | 126 to 128
32 | CCCN(CCc1ccccc1)CCc1cccc2[nH]c(=S)[nH]c12 | 198 to 201
33 | CC(=NO)c1ccc2c(c1)N(C(=O)OC(C)(C)C)CCC2 | 134 to 137
34 | COC(=O)Cc1ccc(CNC(=O)C2Cc3ccccc3N2S(=O)(=O)c2ccc(-c3cccc(C(F)(F)F)c3)cc2)cc1 (centres undefined) | 74
35 | NC(=S)N1CCN(C=O)CC1 | 118
36 | COCc1ccc(C)c(NC(=O)CC23CC4CC(CC(C4)C2)C3)c1 | 127 to 128
37 | Cc1ccc2cccc(OCc3cccc(N)c3C)c2n1 | 223 to 227
38 | O=C(Nc1cc(Cl)ccc1O)c1cc(Cl)cc(Cl)c1 | 251 to 252
39 | Cn1cc(O)c(=O)c2ccc(OCC(F)(F)F)cc21 | 151
40 | CN1CCC(CNc2ncc3cc(-c4ccccc4Cl)c(=O)[nH]c3n2)CC1 | 213 to 220
41 | Cc1ccc(S(=O)(=O)Nc2cccc([N+](=O)[O-])c2N)cc1 | 195
42 | CN(C(CCn1c(=O)cc(C(F)(F)F)[nH]c1=O)C(=O)NO)S(=O)(=O)c1ccc(Oc2ccc(F)cc2)cc1 (centres undefined) | 163 to 164
43 | COC(=S)c1sc(C)c(N)c1N | 95 to 97
44 | CN(Cc1ccc(NC(=O)c2coc3c2C(=O)CCC3)cc1)C(=O)OC(C)(C)C | 150
45 | OC(CNCCNc1ccccc1Cl)COc1cccc2[nH]ncc12 (centres undefined) | 129 to 130
46 | Nc1cccc(C(=O)c2cccc(C(=O)c3cccc(N)c3)c2)c1 | 114 to 117
47 | CC1(C)CCC(C)(C)c2cc(-c3cc(-c4ccc(C(=O)N5CCOCC5)cc4)ccc3-c3ccccc3)ccc21 | 223
48 | O=C(Nc1ccccc1)C1=CNCCC1 | 209 to 212
49 | COc1ccc(-c2ccc3c(c2)C(C)(C)OC(=O)N3)cc1F | 210 to 211
50 | Cc1cc(=O)[nH]c2ccc(OCCCN3CCN(Cc4ccc(C(C)(C)C)cc4)CC3)cc12 | 171 to 172

Row | Compound | melting point [°C]
51 | CCN(CC)C(=O)c1c(Cl)cccc1C(=O)Nc1ccc(Cn2nc(C(F)(F)F)cc2C(F)(F)F)cc1C | 105 to 107
52 | CC(C)(C)OC(=O)N1CCn2c(cc3ccccc32)C1 | 103 to 105
53 | CC(C)(C)C1COC1(Cn1cncn1)c1ccc(F)cc1 (centres undefined) | 128
54 | CCCN1C(=O)N2C[C@@H](Cc3ccccc3)N=C2c2[nH]c(CSCC)nc21 | 178 to 180
55 | COc1ccc(C2(Cn3ccnc3)CC(CNc3ccccc3C)ON2C)cc1 (centres undefined) | 110 to 111
56 | COc1c2c(nn1-c1ccc(Cl)cc1F)CCCC2 | 100 to 102
57 | O=c1oc(Oc2ccc(Cl)cc2)nn1-c1ccccc1Cl | 110
58 | CCOC(=O)CNC(=O)Oc1c(C)n(C)ccc1=O | 132 to 135
59 | COc1cc(C(C)C)ccc1C1COc2c(C)c(C)cc(C)c21 (centres undefined) | 102 to 103
60 | COc1cc2c(cc1OCc1ccccc1)C(C#N)(Sc1ccc(Cl)cc1)C2 (centres undefined) | 114 to 115
61 | CC(C)(C)OC(=O)N1CCC(c2ccc(N3C[C@H](CN)OC3=O)cc2F)CC1 | 136 to 137
62 | CC(C)c1cccc(C(C)C)c1NC(=O)CC(=O)N(Cc1ccccc1)C(C)C | 102
63 | CC(C)c1c(CO)c(-c2ccc(F)cc2)n2ccccc12 | 94 to 95
64 | CCOC(=O)c1ccc(NCCOc2ccc(Br)cc2)cc1 | 128 to 133
65 | COc1ccc(F)c(OC)c1-c1ccc(C[C@H](NC(=O)c2c(Cl)cccc2Cl)C(=O)O)cc1 | 228 to 229
66 | CCOC(=O)c1cn(-c2nc3ccccc3[nH]2)cn1 | 252 to 253
67 | CCOc1ccc(-c2nc(-c3cccc(C(O)CO)n3)cs2)cc1OCC (centres undefined) | 112
68 | CCN(c1ccc(C(=O)c2ccccc2)cc1N)C1CCCCC1 | 106 to 108
69 | CCOC(=O)C1=C(C)NC(N)=C(C(=O)OCC)C1c1cccc([N+](=O)[O-])c1 (centres undefined) | 169
70 | COC(=O)N=C1SCC(=O)N1c1c(-c2ccccc2)csc1NC(=O)CN(C)C | 124 to 126
71 | CN(CCNC(N)=N[N+](=O)[O-])c1ccc(Cl)nc1 | 119 to 122
72 | CS(=O)(=O)c1ccc(/C(=C\C2CCCCCC2)C(=O)O)cc1 | 164 to 166
73 | CCCCc1nc2cccc(C(=O)OC)c2n1Cc1ccc(-c2ccccc2-c2n[nH]c(=O)o2)cc1 | 204 to 205
74 | c1cc2c(Nc3ccc4[nH]ncc4c3)ncnc2cn1 | 258
75 | CNC(=O)C(Br)CCBr (centres undefined) | 48 to 49

Row | Compound | melting point [°C]
76 | C#CC1(O)C(C)CC2C3CCC4=CC(=O)CCC4(C)C3=CCC21C (centres undefined) | 213 to 218
77 | COCC1CN(c2ccc3cc(O)ccc3c2)C(=O)O1 (centres undefined) | 190 to 191
78 | COc1cc(Oc2cccc(C(F)(F)F)c2)nc(C(=O)NCCSCCF)c1 | 82 to 84
79 | CC(=O)N(C)C[C@H]1CN(c2ccc(N3CCC(=CC#N)CC3)c(F)c2)C(=O)O1 | 128 to 132
80 | CC(O)CNc1ccc(NC(=O)n2ccc3cc(Oc4cc(CC(N)=O)ncn4)ccc32)cc1C(F)(F)F (centres undefined) | 226 to 230
81 | CCC(C)(C)Nc1c(NCc2ccc(F)cc2)c(=O)c1=O | 255 to 257
82 | CC(C)C1CC(O)OC(C(C)C2CC(=O)C3C4C(O)C(O)C5C(O)C(O)CCC5(C)C4CCC23C)C1 (centres undefined) | 239 to 241
83 | BrCc1cccc(OCc2ccccc2)c1 | 38 to 40
84 | Cc1cccc(-c2nc3cnccc3[nH]2)c1 | 202 to 204
85 | CN(C)c1nc(C(F)(F)F)cc(=O)n1-c1cc(F)c(C#N)cc1F | 147
86 | O=C1NCCC12CCCN2Cc1ccccc1 (centres undefined) | 152 to 153
87 | CCS(=O)(=O)N=CNCc1nc(-c2csc(N=C(N)N)n2)cs1 | 216 to 217
88 | O=C(Nc1ccc2nc(CN3CCCC3)ccc2c1)c1ccc(-c2ccc(Cl)cc2)nc1 | 225 to 227
89 | CCOC(=O)c1cccc(Cc2c[nH]cn2)c1O | 133
90 | Cc1ccc(N2C(=O)C(O)=C(C(=O)c3ccc(C(C)C)cc3)C2c2ccc(OC(F)(F)F)cc2)nn1 (centres undefined) | 221
91 | CCCCc1c(C=O)cc(OC)c2ccccc12 | 51 to 52
92 | CCN(CC)C(=O)n1ccc(S(=O)(=O)c2cccc(Cl)c2Cl)n1 | 60 to 61.5
93 | COC(OC)c1cccc(-c2ccc(C(=O)O)cc2)c1 | 130 to 131
94 | O=[N+]([O-])c1cnn2c1-c1ccccc1NC2 | 156 to 157
95 | CC(=O)Nc1ccc2c(c1)CN(C)CC2 | 157 to 159
96 | CCN(CC)C(=O)c1ccc(C(=O)N2CCN(c3ncccc3NC(C)C)CC2)cc1 | 78 to 80
97 | COC(=O)c1c(C)nc2ccccc2c1NCc1ccc(Br)cc1 | 89
98 | CS(=O)(=O)c1cccc(-c2ccc3cnc(Nc4ccc(C5CCN(CC(N)=O)CC5)cc4)nn23)c1 | 254
99 | CCNc1nc(Oc2ccccc2)nc2nc(-c3ccco3)nn12 | 127 to 129
